{"source": "paper PMC6199744", "about": "“Development of Chemical Proteomics for the Folateome and Analysis of the Kinetoplastid Folateome” (ACS Infectious Diseases, 2018)", "system": "L. major lysate proteins", "assay": "Multitargeted bead mixture chemoproteomics, single concentration competition, proteome-wide", "type": "binding", "conditions": "for fold change: vehicle control = 1"}
{"smiles": "NCCOCCOCC(=O)Nc1nc2ncc(CNc3ccc(C(=O)NC(CCC(=O)O)C(=O)O)cc3)nc2c(=O)[nH]1", "note": "(stereo not shown) [compound 6]", "values": [{"measurement": "fold change vs vehicle control", "setting": "protein LMJF.15.0690 HY[…], CONSERVED", "value": 1.26}, {"measurement": "fold change", "setting": "protein LMJF.15.1010 GLUTAMATE DEHYDROGENASE", "value": 1.11}, {"measurement": "fold change", "setting": "protein LMJF.15.1190 HY[…], CONSERVED (cyclic nucleotide-binding domain containing protein, putative)", "value": 1.07}, {"measurement": "fold change vs vehicle control", "setting": "protein LMJF.16.0520 HYPOTHETICAL PROTEIN, CONSERVED", "value": 0.99}, {"measurement": "fold change vs vehicle control", "setting": "protein LMJF.16.0540 ASPARTATE […], PUTATIVE", "value": 1.06}, {"measurement": "fold change relative to vehicle control", "setting": "protein LMJF.16.0760, TRANSALDOLASE, PUTATIVE", "value": 1.36}, {"measurement": "fold change vs vehicle control", "setting": "protein LMJF.16.0940 DYNEIN LIGHT CHAIN, PUTATIVE", "value": 0.92}, {"measurement": "fold change relative to vehicle control", "setting": "protein LMJF.16.1180, COATOMER DELTA SUBUNIT-LIKE PROTEIN", "value": 1.24}, {"measurement": "fold change relative to vehicle control", "setting": "protein LMJF.16.1320, […], PUTATIVE", "value": 1.33}, {"measurement": "fold change relative to vehicle control", "setting": "protein LMJF.16.1420, HY[…], CONSERVED", "value": 1.05}, {"measurement": "fold change relative to vehicle control", "setting": "protein LMJF.17.0081, […] 1-ALPHA", "value": 1.09}, {"measurement": "fold change relative to vehicle control", "setting": "protein LMJF.18.0270, GLYCOGEN SYNTHASE KINASE, PUTATIVE", "value": 1.13}, {"measurement": "fold change", "setting": "protein LMJF.18.0580 PEROXISOMAL ENOYL-COA HYDRATASE, PUTATIVE", "value": 0.98}, {"measurement": "fold change relative to vehicle control", "setting": "protein LMJF.18.0680, CITRATE SYNTHASE, PUTATIVE", "value": 1.1}, {"measurement": "fold change vs vehicle control", "setting": "protein LMJF.18.1010 DYNEIN LIGHT CHAIN 2B, CYTOPLASMIC, PUTATIVE", "value": 0.82}, {"measurement": "fold change vs vehicle control", "setting": "protein LMJF.18.1210 PROLYL-TRNA SYNTHETASE, PUTATIVE,BIFUNCTIONAL AMINOACYL-TRNA SYNTHETASE, PUTATIVE", "value": 1}, {"measurement": "fold change vs vehicle control", "setting": "protein LMJF.18.1370 HEAT SHOCK PROTEIN, PUTATIVE", "value": 1.1}, {"measurement": "fold change", "setting": "protein LMJF.19.0200 ADP,ATP CARRIER PROTEIN 1, MITOCHONDRIAL PRECURSOR, PUTATIVE", "value": 1.1}, {"measurement": "fold change vs vehicle control", "setting": "protein LMJF.19.1120 PROTEASOME REGULATORY NON-ATP-ASE SUBUNIT, PUTATIVE", "value": 0.96}, {"measurement": "fold change vs vehicle control", "setting": "protein LMJF.19.1160 HY[…], CONSERVED", "value": 1.08}, {"measurement": "fold change vs vehicle control", "setting": "protein LMJF.19.1560 INOSINE-5'-MONOPHOSPHATE DEHYDROGENASE", "value": 0.98}, {"measurement": "fold change relative to vehicle control", "setting": "protein LMJF.19.1620, POTASSIUM VOLTAGE-GATED CHANNEL, PUTATIVE", "value": 1.05}, {"measurement": "fold change vs vehicle control", "setting": "protein LMJF.20.1280 SMALL MYRISTOYLATED PROTEIN 4, PUTATIVE", "value": 0.89}, {"measurement": "fold change", "setting": "protein LMJF.21.0810 METHIONYL-TRNA SYNTHETASE, PUTATIVE", "value": 1.03}, {"measurement": "fold change", "setting": "protein LMJF.21.1450 ARGININE N-METHYLTRANSFERASE, TYPE II, PUTATIVE", "value": 0.96}, {"measurement": "fold change vs vehicle control", "setting": "protein LMJF.21.1830 […] 5 SUBUNIT, PUTATIVE,20S […] ALPHA 5, (PUTATIVE)", "value": 1.01}, {"measurement": "fold change", "setting": "protein LMJF.22.0230 AMINO ACID PERMEASE, PUTATIVE", "value": 1.05}, {"measurement": "fold change vs vehicle control", "setting": "protein LMJF.22.0570 […] SUBUNIT 1, PUTATIVE", "value": 1.03}, {"measurement": "fold change vs vehicle control", "setting": "protein LMJF.22.0730 HYPOTHETICAL PROTEIN, CONSERVED", "value": 0.94}, {"measurement": "fold change", "setting": "protein LMJF.22.0770 NADH-CYTOCHROME B5 REDUCTASE, PUTATIVE", "value": 0.79}, {"measurement": "fold change relative to vehicle control", "setting": "protein LMJF.23.0020, HY[…], CONSERVED", "value": 1.46}, {"measurement": "fold change relative to vehicle control", "setting": "protein LMJF.23.0040, PEROXIDOXIN", "value": 0.97}, {"measurement": "fold change relative to vehicle control", "setting": "protein LMJF.23.0080, HY[…], CONSERVED", "value": 1.04}, {"measurement": "fold change", "setting": "protein LMJF.23.0210 ATP-BINDING CASSETTE PROTEIN SUBFAMILY C, MEMBER 1, PUTATIVE", "value": 0.92}, {"measurement": "fold change", "setting": "protein LMJF.23.0370 CYTOCHROME C OXIDASE SUBUNIT 10, PUTATIVE", "value": 0.83}, {"measurement": "fold change relative to vehicle control", "setting": "protein LMJF.23.0540, ACETYL-COA SYNTHETASE, PUTATIVE", "value": 1.23}, {"measurement": "fold change vs vehicle control", "setting": "protein LMJF.23.0560 KINESIN, PUTATIVE", "value": 1.1}, {"measurement": "fold change vs vehicle control", "setting": "protein LMJF.23.1410 HY[…], CONSERVED", "value": 1.01}, {"measurement": "fold change relative to vehicle control", "setting": "protein LMJF.24.0070, HYPOTHETICAL PROTEIN, CONSERVED", "value": 0.93}, {"measurement": "fold change", "setting": "protein LMJF.24.0140 ANKYRIN/TPR REPEAT PROTEIN", "value": 1.06}, {"measurement": "fold change", "setting": "protein LMJF.24.0400 HY[…], CONSERVED (TPR repeat, putative)", "value": 1.02}, {"measurement": "fold change relative to vehicle control", "setting": "protein LMJF.24.1510, IGE-DEPENDENT HISTAMINE-RELEASING FACTOR, PUTATIVE", "value": 1.54}, {"measurement": "fold change relative to vehicle control", "setting": "protein LMJF.24.1630, SUCCINATE DEHYDROGENASE FLAVOPROTEIN, PUTATIVE", "value": 1.08}, {"measurement": "fold change relative to vehicle control", "setting": "protein LMJF.24.2060, TRANSKETOLASE", "value": 1.04}, {"measurement": "fold change relative to vehicle control", "setting": "protein LMJF.25.0010, BETA […] TRANSFERASE", "value": 1.13}, {"measurement": "fold change relative to vehicle control", "setting": "protein LMJF.25.0910, CYCLOPHILIN A", "value": 2.21}, {"measurement": "fold change vs vehicle control", "setting": "protein LMJF.25.1130 CYTOCHROME C OXIDASE VII, PUTATIVE", "value": 0.99}, {"measurement": "fold change relative to vehicle control", "setting": "protein LMJF.25.1180, ATPASE BETA SUBUNIT, PUTATIVE", "value": 1.13}, {"measurement": "fold change vs vehicle control", "setting": "protein LMJF.25.1610 HY[…], CONSERVED", "value": 1.01}, {"measurement": "fold change vs vehicle control", "setting": "protein LMJF.25.1620 HYPOTHETICAL PROTEIN, CONSERVED", "value": 1.1}, {"measurement": "fold change", "setting": "protein LMJF.25.2340 SERINE/THREONINE-PROTEIN KINASE, PUTATIVE,PROTEIN KINASE, PUTATIVE", "value": 0.74}, {"measurement": "fold change relative to vehicle control", "setting": "protein LMJF.26.0630, HYPOTHETICAL PROTEIN, CONSERVED", "value": 0.77}, {"measurement": "fold change vs vehicle control", "setting": "protein LMJF.26.1240 HEAT SHOCK PROTEIN 70-RELATED PROTEIN", "value": 1.06}, {"measurement": "fold change", "setting": "protein LMJF.26.1710 CYTOCHROME C OXIDASE SUBUNIT V, PUTATIVE", "value": 0.98}, {"measurement": "fold change vs vehicle control", "setting": "protein LMJF.26.2480 CDP-DIACYLGLYCEROL--INOSITOL 3-[…], PUTATIVE", "value": 1.06}, {"measurement": "fold change vs vehicle control", "setting": "protein LMJF.26.2560 HYPOTHETICAL PROTEIN, CONSERVED", "value": 0.93}, {"measurement": "fold change vs vehicle control", "setting": "protein LMJF.27.0190 PROTEASOME ALPHA 7 SUBUNIT, PUTATIVE", "value": 0.98}, {"measurement": "fold change", "setting": "protein LMJF.27.0650 HY[…], CONSERVED", "value": 1.15}, {"measurement": "fold change", "setting": "protein LMJF.27.0700 HY[…], CONSERVED", "value": 1.08}, {"measurement": "fold change vs vehicle control", "setting": "protein LMJF.27.0760 GTP-binding protein homologue", "value": 1.08}, {"measurement": "fold change vs vehicle control", "setting": "protein LMJF.27.1060 CYSTEINE DESULFURASE, PUTATIVE", "value": 1.09}, {"measurement": "fold change vs vehicle control", "setting": "protein LMJF.27.1110 MITOCHONDRIAL RNA BINDING PROTEIN 1,GBP21, MRP1", "value": 1}, {"measurement": "fold change", "setting": "protein LMJF.27.1250 HYPOTHETICAL PROTEIN, CONSERVED (Serine-threonine kinase receptor-associated protein, putative)", "value": 0.85}, {"measurement": "fold change relative to vehicle control", "setting": "protein LMJF.27.1390, 60S ACIDIC RIBOSOMAL SUBUNIT PROTEIN, PUTATIVE", "value": 1.07}, {"measurement": "fold change", "setting": "protein LMJF.27.1460 PROTEASOME REGULATORY NON-ATP-ASE SUBUNIT 3, PUTATIVE", "value": 1.1}, {"measurement": "fold change vs vehicle control", "setting": "protein LMJF.28.0110 […] 3 SUBUNIT, PUTATIVE", "value": 1.01}, {"measurement": "fold change vs vehicle control", "setting": "protein LMJF.28.0490 PROPIONYL-COA CARBOXYLASE BETA CHAIN, PUTATIVE", "value": 1.2}]}
